Experimental findings from PMC2118486 (The Journal of Experimental Medicine, 2007) are described below.

For data set [1] the following is noted: mouse, 37°C, up to 60 min.
The subject of data set [2] is purified peritoneal mast cells (Mc-cpa). The data set is classed as in vitro ADME, mouse. To be noted: Mc-cpaY356L,E378A mast cells, 2 μM ionomycin, 37°C, 60 min; reduced (DTT/IAA) sample; MALDI-TOF.

As to “Cys-Ser-Cys-Ser-Ser-Leu-Met-Asp-Lys-Glu-Cys-Val-Tyr-Phe-Cys-His-Leu-Asp-Ile-Ile-Trp”, in data set [1], the not cleaved entry was “ET-1 (1–21) was also maintained”.
Consider sarafotoxin 6b [S6b], for which the “internal cleavage of S6b” value in data set [2] was “reaction products consistent with the masses of 1–13 and 1–14 fragments of S6b”.
